{
  "source": "ChEMBL document CHEMBL5352385",
  "about": "“Marine natural products and their synthetic analogs as promising antibiofilm agents for antibiotics discovery and development” (Eur J Med Chem, 2022)",
  "assay_type_in_all_cases": "functional",
  "key": {"Staphylococcus aureus [1]": {"system": "Staphylococcus aureus", "assay": "Antibiofilm activity against methicillin-sensitive Staphylococcus aureus ATCC 35556 incubated for 24 hrs"}, "Staphylococcus aureus [2]": {"system": "Staphylococcus aureus", "assay": "Antibiofilm activity against methicillin-resistant Staphylococcus aureus ATCC 43866 incubated for 24 hrs"}, "[3]": {"system": "Staphylococcus epidermidis", "assay": "Antibiofilm activity against […] incubated for 24 hrs"}, "Vibrio anguillarum": {"system": "Vibrio anguillarum", "assay": "Antibiofilm activity against Vibrio anguillarum at 300 ug/ml relative to control", "settings": "dose 300 µg/ml"}, "Pseudomonas aeruginosa [4]": {"system": "Pseudomonas aeruginosa", "assay": "Antibiofilm activity against Pseudomonas aeruginosa at 300 ug/ml relative to control", "settings": "dose 300 µg/ml"}, "Bacillus subtilis [5]": {"system": "Bacillus subtilis", "assay": "Antibiofilm activity against Bacillus subtilis at 300 ug/ml relative to control", "settings": "dose 300 µg/ml"}, "Bacillus sp.": {"system": "Bacillus sp.", "assay": "Antibiofilm activity against Bacillus sp. 176 at 300 ug/ml relative to control", "settings": "dose 300 µg/ml"}, "Acinetobacter baumannii [6]": {"system": "Acinetobacter baumannii", "assay": "Antibiofilm activity against Acinetobacter baumannii ATCC 19606 assessed as reduction in biofilm formation incubated for 24 hrs by crystal violet staining based analysis"}, "Acinetobacter baumannii [7]": {"system": "Acinetobacter baumannii", "assay": "Antibiofilm activity against Acinetobacter baumannii ATCC […] assessed as reduction in biofilm formation incubated for 24 hrs by crystal violet staining based analysis"}, "Pseudomonas aeruginosa [8]": {"system": "Pseudomonas aeruginosa", "assay": "Antibiofilm activity against Pseudomonas aeruginosa PA01 assessed as inhibition of biofilm formation at 800 ug/ml relative to control", "parameters": "scale not given: the % may be the effect or the level left", "settings": "dose 800 µg/ml"}, "Bacillus pumilus": {"system": "Bacillus pumilus", "assay": "Antibiofilm activity against Bacillus pumilus TiO1 assessed as inhibition of biofilm formation at 12.5 ug/ml by microdilution plate method relative to control", "parameters": "scale not given: the % may be the effect or the level left", "settings": "dose 12.5 µg/ml"}, "Pseudomonas aeruginosa [9]": {"system": "Pseudomonas aeruginosa", "assay": "Antibiofilm activity against Pseudomonas aeruginosa PA01 assessed as inhibition of biofilm formation at 25 ug/ml by microdilution plate method relative to control", "parameters": "scale not given: the % may be the effect or the level left", "settings": "dose 25 µg/ml"}, "Candida albicans [10]": {"system": "Candida albicans", "assay": "Antibiofilm activity against Candida albicans BH assessed as inhibition of biofilm formation at 25 ug/ml by microdilution plate method relative to control", "parameters": "scale not given: the % may be the effect or the level left", "settings": "dose 25 µg/ml"}, "Pseudomonas aeruginosa [11]": {"system": "Pseudomonas aeruginosa", "assay": "Antibiofilm activity against Pseudomonas aeruginosa PA01 assessed as inhibition of biofilm formation at 100 ug/ml by microdilution plate method relative to control", "parameters": "scale not given: the % may be the effect or the level left", "settings": "dose 100 µg/ml"}, "Staphylococcus aureus [12]": {"system": "Staphylococcus aureus", "assay": "Antibiofilm activity against methicillin-resistant Staphylococcus aureus 33591 assessed as reduction in biofilm formation at 50 ug/ml measured after 24 hrs by crystal violet staining based analysis relative to control", "parameters": "scale not given: the % may be the effect or the level left", "settings": "dose 50 µg/ml"}, "Candida albicans [13]": {"system": "Candida albicans", "assay": "Antibiofilm activity against Candida albicans assessed as reduction in biofilm formation at 50 ug/ml measured after 48 hrs by crystal violet staining based analysis relative to control", "parameters": "scale not given: the % may be the effect or the level left", "settings": "dose 50 µg/ml"}, "Escherichia coli [14]": {"system": "Escherichia coli", "assay": "Antibiofilm activity against Escherichia coli at 31.3 ug/ml relative to control", "settings": "dose 31.3 µg/ml"}, "Bacillus subtilis [15]": {"system": "Bacillus subtilis", "assay": "Antibiofilm activity against Bacillus subtilis MTCC 619 at 2 ug/ml incubated for 18 hrs by crystal violet staining based analysis relative to control", "settings": "dose 2 µg/ml"}, "Staphylococcus aureus [16]": {"system": "Staphylococcus aureus", "assay": "Antibiofilm activity against Staphylococcus aureus MTCC 96 at 2 ug/ml incubated for 18 hrs by crystal violet staining based analysis relative to control", "settings": "dose 2 µg/ml"}, "Vibrio cholerae": {"system": "Vibrio cholerae", "assay": "Antibiofilm activity against Vibrio cholerae MTCC 3906 at 2 ug/ml incubated for 18 hrs by crystal violet staining based analysis relative to control", "settings": "dose 2 µg/ml"}, "Escherichia coli [17]": {"system": "Escherichia coli", "assay": "Antibiofilm activity against Escherichia coli assessed as inhibition of biofilm formation"}, "Pseudomonas aeruginosa [18]": {"system": "Pseudomonas aeruginosa", "assay": "Antibiofilm activity against Pseudomonas aeruginosa assessed as inhibition of biofilm formation at 100 to 200 ug/ml relative to control", "parameters": "scale not given: the % may be the effect or the level left", "settings": "dose 100-200 µg/ml; at 100 to 200 µg/mL"}, "Pseudomonas aeruginosa [19]": {"system": "Pseudomonas aeruginosa", "assay": "Antibiofilm activity against Pseudomonas aeruginosa FSPA02 at 75 ug/ml by crystal violet staining based confocal microscopy analysis relative to control", "settings": "dose 75 µg/ml"}, "Candida albicans [20]": {"system": "Candida albicans", "assay": "Antibiofilm activity against Candida albicans assessed as reduction in biofilm formation at 100 ug/ml measured after 48 hrs by crystal violet staining based analysis relative to control", "parameters": "scale not given: the % may be the effect or the level left", "settings": "dose 100 µg/ml"}, "Staphylococcus aureus [21]": {"system": "Staphylococcus aureus", "assay": "Antibiofilm activity against Staphylococcus aureus by crystal violet staining based analysis"}, "Staphylococcus aureus [22]": {"system": "Staphylococcus aureus", "assay": "Antibiofilm activity against Staphylococcus aureus incubated for 3 hrs by XTT method"}, "Pseudomonas aeruginosa [23]": {"system": "Pseudomonas aeruginosa", "assay": "Antibiofilm activity against Pseudomonas aeruginosa PAO1 at 500 ug/ml incubated for 24 hrs by crystal violet staining based analysis relative to control", "settings": "dose 500 µg/ml"}},
  "note": "*1 amine or outer side, *2 acyl side, *3 side chain or, on linkers, in order; H or OH if unused. Where a SMILES comes first, the peptide text is derived from it. [ ]: non-standard residue; d: D form. The star is where a group is joined. X1 = CCCCCCCCCCCCCC(N[*:1])C(=O)[*:2]; Palmitoyl = CCCCCCCCCCCCCCCC(=O)*; X2 = CCCCCCCCC(O)CC(=O)O*",
  "data": [
    {"smiles": "Cn1c(-c2nnc(-c3ccc(Cl)cc3Cl)o2)cc(Br)c1Br", "values": [
      {"measurement": "MBIC", "setting": "Staphylococcus aureus [1]", "result": 0.39, "unit": "µg/mL"},
      {"measurement": "MBIC", "setting": "Staphylococcus aureus [2]", "result": 0.78, "unit": "µg/mL"},
      {"measurement": "MBIC", "setting": "[3]", "result": 3.125, "unit": "µg/mL"}
    ]},
    {"smiles": "CCCCCCCCCCCCCC1NC(=O)C(C(C)CC)NC(=O)C(CC(C)C)NC(=O)C(CC(=O)OC)NC(=O)C(CC(C)C)NC(=O)C(CC(C)C)NC(=O)C(CC(C)C)NC(=O)C(CCC(=O)OC)NC1=O", "note": "(stereo not drawn) (cyclo([X1]E(OMe)LLLD(OMe)LI); configuration not given here)", "values": [
      {"measurement": "Activity", "setting": "Vibrio anguillarum", "result": ">50", "unit": "%"},
      {"measurement": "Activity", "setting": "Pseudomonas aeruginosa [4]", "result": ">50", "unit": "%"},
      {"measurement": "Activity", "setting": "Bacillus subtilis [5]", "result": ">50", "unit": "%"},
      {"measurement": "Activity", "setting": "Bacillus sp.", "result": ">50", "unit": "%"}
    ]},
    {"smiles": "COc1cc(-c2ccccn2)nc(/C=N/O)c1S(C)(=O)=O", "values": [
      {"measurement": "MBIC", "setting": "Acinetobacter baumannii [6]", "result": 8, "unit": "µg/mL"},
      {"measurement": "MBIC", "setting": "Acinetobacter baumannii [7]", "result": 32, "unit": "µg/mL"}
    ]},
    {"smiles": "CC(=O)NCCc1ccc(O)cc1", "values": [
      {"measurement": "Activity", "setting": "Pseudomonas aeruginosa [8]", "result": 28, "unit": "%"}
    ]},
    {"smiles": "CCCCCCCCCCCCCCCC(=O)OC[C@H]1O[C@H](O)[C@H](O)[C@@H](O)[C@@H]1O", "values": [
      {"measurement": "Activity", "setting": "Bacillus pumilus", "result": ">50", "unit": "%"},
      {"measurement": "Activity", "setting": "Pseudomonas aeruginosa [9]", "result": ">50", "unit": "%"},
      {"measurement": "Activity", "setting": "Candida albicans [10]", "result": ">50", "unit": "%"},
      {"measurement": "Activity", "setting": "Pseudomonas aeruginosa [11]", "result": ">70", "unit": "%"}
    ]},
    {"smiles": "COc1cc(-c2ccccn2)nc(CO)c1SC", "values": [
      {"measurement": "Activity", "setting": "Staphylococcus aureus [12]", "result": ">90", "unit": "%"}
    ]},
    {"smiles": "CCCCCCC(C)/C(O)=C1\\C(=O)[C@@H](C(C)O)N(C)C1=O", "note": "(stereo partly drawn)", "values": [
      {"measurement": "Activity", "setting": "Candida albicans [13]", "result": 80, "unit": "%"}
    ]},
    {"smiles": "NC1=N[C@]23CCCN2C(=O)c2cc(Br)c(Br)n2[C@@H]3N1", "note": "[DIBROMOPHAKELLIN]", "values": [
      {"measurement": "Activity", "setting": "Escherichia coli [14]", "result": 50, "unit": "%"}
    ]},
    {"smiles": "NCCc1ccc(O)cc1", "note": "[TYRAMINE]", "values": [
      {"measurement": "Activity", "setting": "Pseudomonas aeruginosa [8]", "result": 28, "unit": "%"}
    ]},
    {"smiles": "CCCCCCCCCCCCCCCC(=O)NC(CO)C(=O)NC(CC(=O)O)C(=O)NC(C(=O)NC(CO)C(=O)NC(CO)C(=O)O)C(C)C", "note": "(stereo not drawn) (Palmitoyl-SDVSS-OH; configuration not given here)", "values": [
      {"measurement": "Activity", "setting": "Bacillus subtilis [15]", "result": 99, "unit": "%"},
      {"measurement": "Activity", "setting": "Staphylococcus aureus [16]", "result": 99, "unit": "%"},
      {"measurement": "Activity", "setting": "Vibrio cholerae", "result": 99, "unit": "%"}
    ]},
    {"smiles": "CCCCCCCCC1C=CC(=O)O1", "note": "(stereo not drawn)", "values": [
      {"measurement": "MBIC", "setting": "Escherichia coli [17]", "result": 50, "unit": "µg/mL"},
      {"measurement": "Activity", "setting": "Pseudomonas aeruginosa [18]", "result": 100, "unit": "%"}
    ]},
    {"smiles": "CCCCCCCCC(O)CC(=O)OC(=O)C(Cc1ccccc1)NC(=O)C(CC(C)C)NC(=O)C(CC(C)C)NC(=O)C(NC(=O)C(CC(=O)O)NC(=O)C(CC(C)C)NC(=O)C(N)CC(C)C)C(C)C", "note": "(stereo not drawn) (H-LLDVLLF-X2; configuration not given here)", "values": [
      {"measurement": "Activity", "setting": "Pseudomonas aeruginosa [19]", "result": 90, "unit": "%"}
    ]},
    {"smiles": "C/C=C1\\C(=O)/C(=C(/O)C(C)CCCCCC)C(=O)N1C", "note": "(stereo not drawn) [PENICILLENOL B2]", "values": [
      {"measurement": "Activity", "setting": "Candida albicans [20]", "result": 80, "unit": "%"}
    ]},
    {"smiles": "CCCCOC(=O)[C@]1(Cc2ccccc2)OC(=O)C(O)=C1c1ccccc1", "values": [
      {"measurement": "MBIC", "setting": "Staphylococcus aureus [21]", "result": 6.1, "unit": "µg/mL"},
      {"measurement": "MBIC", "setting": "Staphylococcus aureus [22]", "result": 97.7, "unit": "µg/mL"}
    ]},
    {"smiles": "O=C1N[C@@H](Cc2ccc(O)cc2)C(=O)N2CCC[C@@H]12", "values": [
      {"measurement": "Activity", "setting": "Pseudomonas aeruginosa [23]", "result": 48, "unit": "%"}
    ]}
  ]
}
